{
  "source": "patent US20250250265A1",
  "about": "“BENZOTHIAZOLE-PHENYLSULFONYL-PIPERIDINE ANALOGS AS ACTIVATORS OF NACYLPHOSPHATIDYLETHANOLAMINE HYDROLYZING PHOSPHOLIPASE D” (priority 2022, published 2025)",
  "key": {"[1]": {"target": "T1, recombinant human NAPE-PLD (Homo sapiens, UniProt Q6IQ20)", "T1 construct": "The expression plasmid including the full-length human NAPEPLD gene with a C-terminal hexahistidine tag; hexahistidine (His6) (C)", "T1 sequence (Q6IQ20 whole entry)": "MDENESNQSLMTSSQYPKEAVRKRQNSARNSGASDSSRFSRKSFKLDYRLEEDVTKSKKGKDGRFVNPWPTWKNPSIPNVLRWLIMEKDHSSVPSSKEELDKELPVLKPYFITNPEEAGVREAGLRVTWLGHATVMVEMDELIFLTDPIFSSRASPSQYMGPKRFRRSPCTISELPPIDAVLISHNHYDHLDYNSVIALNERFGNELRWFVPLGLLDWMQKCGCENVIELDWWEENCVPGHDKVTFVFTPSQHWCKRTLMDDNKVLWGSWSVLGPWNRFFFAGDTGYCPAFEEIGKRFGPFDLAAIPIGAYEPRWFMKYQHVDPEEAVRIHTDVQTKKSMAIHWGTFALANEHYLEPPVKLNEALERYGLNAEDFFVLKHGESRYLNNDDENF", "test": "Concentration response with recombinant human NAPE-PLD, PED-A1 as substrate", "type": "biochemical", "settings": "for effect on activity of recombinant human NAPE-PLD: graded concentrations (FIG. 18A)", "from_the_text": "FIG. 18A-B show VU534 and VU533 activate human NAPE-PLD. […] Mean±SEM, n=3. Non-linear regression with variable slope (four parameter) was used to calculate EC50 and Emax.\nInitial stocks of potential NAPE-PLD modulator compounds were purchased from Life Chemicals and provided by the Vanderbilt HTS screening facility. Additional compounds were synthesized by the Vanderbilt Chemical Synthesis core. LEI-401, [^2H4]PEA and [^2H4]OEA were purchased from Cayman Chemicals. N-palmitoyl-PE, 1,2-dioleoyl-PE and 1,2-dihexanoyl-PE were purchased from Avanti Polar Lipids. PED-A1 was purchased from Invitrogen. Flame-NAPE was synthesized as previously described. See Zarrow et al., J. Lipid Res. 63(1): 100156 (2022). [^2H4]N-palmitoyl-PE was synthesized using [^2H4] palmitic acid (Cambridge Isotope Laboratories) and 1,2-dioleoyl-PE and N-oleoyl-PE was synthesized using 1,2-dihexanoyl-PE and oleoyl chloride (Millipore Sigma). Recombinant mouse NAPE-PLD with a C-terminal hexahistidine tag was expressed in E. coli and purified using cobalt affinity beads as previously described. See Aggarwal et al., J. Biol. Chem. 295(21): 7289-7300 (2020). The expression plasmid including the full-length human NAPEPLD gene with a C-terminal hexahistidine tag inserted in a pET plasmid was purchased from VectorBuilder, and the protein expressed and purified in an identical manner to recombinant mouse NAPE-PLD. The sEH inhibitors TPPU (N-[1-(1-Oxopropyl)-4-piperidinyl]-N′-[4-(trifluoromethoxy)phenyl]urea) and AUDA (12-[[(tricyclo[3.3.1.13,7]dec-1-ylamino)carbonyl]amino]-dodecanoic acid) were purchased from Cayman Chemical and Sigma Chemicals, respectively.\nIn vitro fluorescence NAPE-PLD activity assays using recombinant NAPE-PLD and either PED-A1 or flame-NAPE as fluorogenic substrate were performed as previously described except with small modifications as noted below. See Aggarwal et al., J. Biol. Chem. 295(21): 7289-7300 (2020); Zarrow et al., J. Lipid Res. 63(1): 100156 (2022).\nConcentration response curve (CRC) experiments used the same assay conditions as the HTS assay, except that graded concentrations of each test compound were used, with total amount of vehicle (DMSO) kept constant. CRC experiments with purified recombinant mouse NAPE-PLD were performed on two separate days, with values from each day normalized to vehicle only controls on same plate, and then all normalized values from both days averaged together. CRC experiments with human NAPE-PLD represent value from only a single day, due to limited amounts of this recombinant enzyme."}, "[2]": {"target": "T2, recombinant mouse NAPE-PLD (Mus musculus, UniProt Q8BH82)", "T2 construct": "hexahistidine (His6) (C); made in house; host or cells: E. coli", "T2 sequence (Q8BH82 1-396)": "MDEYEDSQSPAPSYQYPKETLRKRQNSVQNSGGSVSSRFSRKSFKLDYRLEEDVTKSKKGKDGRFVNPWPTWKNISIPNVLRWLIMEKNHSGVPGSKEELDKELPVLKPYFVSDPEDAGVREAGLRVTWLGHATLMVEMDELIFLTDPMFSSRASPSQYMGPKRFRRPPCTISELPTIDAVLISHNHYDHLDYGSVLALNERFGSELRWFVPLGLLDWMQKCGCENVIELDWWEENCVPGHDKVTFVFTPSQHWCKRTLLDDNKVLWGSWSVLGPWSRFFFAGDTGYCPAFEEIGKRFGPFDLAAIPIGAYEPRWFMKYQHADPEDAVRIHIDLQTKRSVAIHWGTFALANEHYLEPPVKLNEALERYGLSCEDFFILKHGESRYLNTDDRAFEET", "test": "In vitro competition assay (LEI-401, VU233, VU534) on recombinant mouse Nape-pld", "type": "biochemical", "protocol": "(§1) A similar in vitro fluorescence Nape-pld activity assay was used for LEI-401 and VU233 competition assays except that this assay was performed using black-walled clear-bottom 96-well plates with 3.5 μM PED-A1 and no N-palmitoyl-dioleoyl-PE used as substrate and read in a BioTek Synergy H1 plate reader with the slope of the fluorescence signal from 0-4 min (linear phase) used as the assay readout. LEI-401, VU233, and VU534 were incubated for 1 h prior to addition of PED-A1. The Michaelis-Menten study used this same assay except with graded concentration of flame-NAPE."}, "[3]": {"target": "T3, NAPE-PLD activity in primary BMDMϕ (Mus musculus, UniProt Q8BH82)", "T3 construct": "endogenous in cells; host or cells: primary bone-marrow-derived macrophages (C57BL6/j mice)", "T3 sequence (Q8BH82 1-396)": "T2 sequence (Q8BH82 1-396)", "test": "NAPE-PLD activity in primary bone marrow derived macrophages", "type": "cell-based", "settings": "VU534 at 10 μM (FIG. 5)"}, "[4]": {"target": "T2, recombinant mouse NAPE-PLD", "test": "Michaelis-Menten analysis with flame-NAPE as substrate", "type": "biochemical", "protocol": "To further understand this effect, a 50-nanosecond molecular dynamic (MD) simulation was performed using AMBER17. The PDQ9:VU534 complex was prepped for simulation using CHARMM-GUI and ff14SB, TIP3P, GAFF2 force fields were employed for proteins, […] molecules, respectively. This simulation predicted that VU534 binding to the interface pocket allosterically alters the catalytic site conformation including reorienting the zinc-hydroxide-zinc complex parallel to the substrate (FIG. 11), consistent with the measured increased kcat.\nas §1\nTo confirm the results of the fluorescence-based assays, an orthogonal biochemical Nape-pld assay based on LC/MS was employed. Recombinant mouse NAPE-PLD was pre-treated with VU534, VU533, VU233 or vehicle for 30 min, then N-oleoyl-phosphatidylethanolamine (NOPE) was added for 90 min, and the resulting levels of OEA and NOPE was measured by LC/MS. […] To further characterize the effect of VU534 on NAPE-PLD activity, a Michaelis-Menten analysis was performed using recombinant mouse NAPE-PLD and graded concentrations of flame-NAPE, a selective NAPE-PLD fluorogenic substrate resistant to competing esterase activity."}},
  "note": "Entries after “also recorded” stand apart in the source; their conditions may differ.",
  "data": [
    {"molecule": "Cc1ccc(C)c2sc(NC(=O)C3CCN(S(=O)(=O)c4ccc(F)cc4)CC3)nc12", "note": "[VU533]", "values": [
      {"measurement": "Emax, recombinant human NAPE-PLD", "setting": "[1]; FIG. 18A, PED-A1", "result": 1.9, "unit": "fold"},
      {"measurement": "effect on activity of recombinant human NAPE-PLD", "setting": "[1]", "result": "concentration-dependent increases"}
    ]},
    {"molecule": "O=C(Nc1nc2ccccc2s1)C1CCN(S(=O)(=O)c2ccc(F)c(Cl)c2)CC1", "note": "[VU233]", "values": [
      {"measurement": "EC50, recombinant human NAPE-PLD", "setting": "[1]; FIG. 18A, PED-A1", "result": "not calculable"},
      {"measurement": "effect on activity of recombinant human NAPE-PLD", "setting": "[1]", "result": "no significant effect"},
      {"measurement": "effect on enzyme activation by 5 μM VU534", "setting": "[2]; graded concentrations with 5 μM VU534 (FIG. 19C)", "result": "suppress the enzyme activation of 5 μM VU534 in a concentration-dependent manner"}
    ]},
    {"molecule": "Cc1cc(C)c2sc(NC(=O)C3CCN(S(=O)(=O)c4ccc(F)cc4)CC3)nc2c1", "note": "[VU534, N-(5,7-Dimethylbenzo[d]thiazol-2-yl)-1-((4-fluorophenyl)sulfonyl)piperidine-4-carboxamide]", "values": [
      {"measurement": "Emax, recombinant human NAPE-PLD", "setting": "[1]; FIG. 18A, PED-A1", "result": 1.8, "unit": "fold"},
      {"measurement": "effect on activity of recombinant human NAPE-PLD", "setting": "[1]", "result": "concentration-dependent increases"},
      {"measurement": "effect on NAPE-PLD activity in primary BMDM", "setting": "[3]", "result": "increases NAPE-PLD activity"},
      {"measurement": "effect on catalytic rate (kcat) of NAPE-PLD", "setting": "[4]; Example 9, FIG. 10", "result": "enhanced kcat (turnover number) without reducing the Michaelis-Menten constant, Km; also recorded: increases the catalytic rate"},
      {"measurement": "K1/2 of NAPE-PLD", "setting": "[4]; with VU534 (vehicle 12.4 μM), flame-NAPE", "result": 5.9, "unit": "µM"},
      {"measurement": "maximal velocity of NAPE-PLD", "setting": "[4]; with VU534 (vehicle 227 RFU/min), flame-NAPE", "result": 421, "unit": "RFU/min"},
      {"measurement": "increase of Nape-pld activity", "setting": "[2]; 5 μM, in the absence of LEI-401", "result": 1.5, "unit": "fold"}
    ]}
  ]
}
